{"source": "patent US12060310B2", "about": "“Compositions and methods of using itaconic acid derivatives” (ERGON PHARMACEUTICALS, LLC, priority 2018, dated 2024)", "key": {"[1]": {"system": "C6-IRG1-9 rat glioma cells", "experiment": "C6-IRG1-9 rat glioma cell proliferation (CyQuant)", "assay_type": "cell-based", "conditions": "various concentrations, 48 hrs; FIG. 3", "description": "Tumor Cell Proliferation Assay. This assay was used to assess the anti-tumor properties of a therapeutic agent in vitro. In a typical proliferation assay, cells were cultured to near confluency in the appropriate media. Subsequently, the cells were trypsinized and plated onto 96-well plates at 2,000 or 5,000 cell per well. The cells were cultured for 48 to 96 hours in the presence or absence of the therapeutic agent. Cell proliferation was then determined using spectrophotometry (MTT assay, BrdU assay) or fluorimetry (Cyquant assay).\nInhibition of C6-IRG1-9 Rat Glioma cell proliferation. C6-IRG1-9 cells are rat C6 glioma cells that have been transfected to overexpress IRG1. Overexpression of IRG1 is maintained by culturing the cells in DMEM media containing 0.55 μg/mL puromycin. For the proliferation assays, the cells were plated onto a 96-well plate at a density of 2,000 cells/well. The cells were allowed to adhere overnight; they were subsequently treated with various concentrations of compounds of Formula (2) for 48 hrs. At the end of the incubation period, the number of cells is assessed using the CyQuant Cell Proliferation kit (Thermo Fisher) according to the manufacturer's instructions. The results, shown in FIG. 3, indicate that compounds of Formula (2) are able to reduce or abrogate growth of C6-IRG1-9 cells. In FIG. 3, cell proliferation is expressed as % Untreated Control, defined as: (t−s)*100/(c−s), where t is the number of cells present in a treated well at the end of the incubation period, c is the number of cells present in an untreated well at the end of the incubation period, and s is the initial number of cells in the wells prior to initiation of treatment."}, "IRG1": {"molecular_target": "T1, IRG1 (Homo sapiens, UniProt A6NK06)", "T1 construct": "Human monocytes, isolated from peripheral blood and differentiated into macrophages; endogenous in cells; host or cells: human monocyte-derived macrophages (hMDMs), M-CSF differentiated, LPS stimulated", "T1 sequence (A6NK06 1-481)": "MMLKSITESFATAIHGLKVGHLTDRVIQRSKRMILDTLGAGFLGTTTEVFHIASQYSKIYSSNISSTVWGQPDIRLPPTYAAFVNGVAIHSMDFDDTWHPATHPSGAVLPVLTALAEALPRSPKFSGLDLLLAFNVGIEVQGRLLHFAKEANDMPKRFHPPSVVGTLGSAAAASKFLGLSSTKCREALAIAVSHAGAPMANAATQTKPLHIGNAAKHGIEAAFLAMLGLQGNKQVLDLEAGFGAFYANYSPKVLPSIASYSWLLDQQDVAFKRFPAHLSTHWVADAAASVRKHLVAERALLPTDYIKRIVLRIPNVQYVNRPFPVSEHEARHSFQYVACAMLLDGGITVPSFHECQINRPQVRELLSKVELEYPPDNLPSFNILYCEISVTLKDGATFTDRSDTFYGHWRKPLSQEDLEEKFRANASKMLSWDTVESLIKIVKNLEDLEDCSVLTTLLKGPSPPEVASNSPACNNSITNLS", "experiment": "Itaconic acid synthesis by LPS-stimulated macrophages (inhibition of IRG1), GC-MS", "assay_type": "cell-based", "conditions": "LPS-stimulated hMDMs; pretreated 50, 100, 500 μM for 15 min, LPS 8 hrs; FIG. 1", "description": "Inhibition of IRG1. Itaconic acid levels are a measure of IRG1 expression/activity. To determine the activity of IRG, hMDMs were stimulated with 100 ng/ml LPS for 8 hrs in the presence or absence of the therapeutic agent. Gas chromatography-mass spectroscopy (GC-MS) was used to estimate the intracellular and extracellular concentration of the itaconic acid. In a typical assay, 1-5×10^6 cells were plated onto a 6-well plate and allowed to adhere overnight. The cells were then stimulated with 0.1-1 μg/mL LPS in the presence or absence of the compound of interest for 8 hrs. The cells were then washed and metabolites were extracted using methanol/water and acetonitrile additions. The aqueous phase of the mixture was dried and metabolites present were derivatized prior to the detection by GC-MS.\nItaconic Acid Synthesis by LPS-Stimulated Macrophages after Treatment with Compound (6). Human monocytes, isolated from peripheral blood and differentiated into macrophages in the presence of 100 ng/ml monocyte colony-stimulating factor (M-CSF) for 5 days, were plated onto a 6-well plate at a density of 1×10^6 cells/well. The cells were allowed to adhere overnight. […] Derivatized metabolites were analyzed by GC-MS. The amount of itaconic acid present in the samples was determined after peak integration. […]"}, "[2]": {"system": "TNFα secretion from LPS-stimulated human monocyte derived macrophages (hMDMs)", "experiment": "Inhibition of TNFα secretion (in vitro inflammation assay), ELISA", "assay_type": "cell-based", "conditions": "1 μg/mL LPS, 6 h, concentrations ≥500 μM, FIG. 2", "description": "In Vitro Inflammation Assay. In vitro inflammation was assessed by measuring the concentration of TNFα in the conditioned media of macrophages stimulated with 0.1-1 μg/mL LPS in the presence or absence of the compound of interest after 4-6 hrs.\nInhibition of TNFα secretion. hMDMs were pretreated with various concentrations of Compound (6) for 15 min and then stimulated with 1 μg/mL LPS. Conditioned media were collected 6 h later and TNFα concentrations were determined by ELISA."}, "[3]": {"system": "TCR-activated hCD8+ T cells", "experiment": "CD8+ T cell proliferation (CFSE dilution, flow cytometry)", "assay_type": "cell-based, human", "conditions": "10 nM; versus untreated TCR-activated control cells; FIG. 4", "description": "Augmentation of CD8^+ T Cell Proliferation. Naïve hCD8^+ T cells were isolated from commercially available buffy coats using magnetic separation and the appropriate kit from Miltenyi Biotec. Cells were then subject to TCR activation using a cocktail of anti-CD2/anti-CD3/anti-CD28 antibodies. Untreated control and treated cells were included in the experiment. The cells were cultured for 72 hrs in TexMACS media (Miltenyi Biotec) without IL-2 and for an additional 48 hrs in TexMACS media containing 20 U human IL-2/mL. Cell division was assessed by flow cytometry using the carboxyfluorescein succimidyl ester (CFSE) dilution method."}, "[4]": {"system": "TCR-activated hCD8+ T cells", "experiment": "hCD8+ T cell differentiation into effector T cells (IFNγ and GZMB release, ELISA)", "assay_type": "cell-based, human", "description": "Differentiation of T Cells. The ability of T cells to differentiate from a naïve to an effector state was assessed by measuring the levels of IFNγ or GZMB synthesis following activation of the cells using a cocktail of anti-CD2/anti-CD3/anti-CD28 antibodies. Expression of IFNγ, GZMB, and other effector cytokines was measured by determining their concentration in the conditioned media 24-72 hrs after initiation of activation or by estimating the % cells expressing these cytokines using fluorescence-activated cell sorting (FACS).\nAugmentation of hCD8^+ T Cell Differentiation into Effector T Cells. Naïve CD8+ T cells were isolated from human buffy coats using magnetic separation and the appropriate kit from Miltenyi Biotec. Cells were then activated using a cocktail of anti-CD2/anti-CD3/anti-CD28 antibodies. Differentiation of the cells into effector T cells was assessed by determining the levels of IFNγ and GZMB released into the media at 24 and 72 hrs, respectively using appropriate ELISA kits. Cytokine concentrations were normalized per number of cells present and expressed as % Untreated Control."}, "[5]": {"system": "trimethylated lysine site 4 of histone 3 (H3K4me3)", "experiment": "Epigenetic modification, Western immunoblotting of H3K4me3", "assay_type": "cell-based, human", "conditions": "10 μM, 72 hrs, TCR-activated hCD8+ T cells; FIG. 5", "description": "Epigenetic Modifications. The ability of a therapeutic agent to alter acetylation and/or methylation of histones was assessed by Western Immunoblotting. Briefly, immune and other type cells were collected after being exposed to the therapeutic agent or vehicle control for a specific period of time, typically 24-72 hrs. They were then lysed and cell lysates from control and treated cells contained equal amounts of proteins were subjected to SDS-PAGE electrophoresis. The presence of acetylated and methylated histone sites was determined by Western Immunoblotting using appropriate antibodies.\nEpigenetic Modification. TCR-activated hCD8^+ T cells were exposed to 0 or 10 µM Compound (6) for 72 hrs prior to lysing. Equal amounts of cell lysates were subjected to gel electrophoresis and Western immunoblotting against trimethylated lysine site 4 of histone 3 (H3K4me3). The experiment also included cell lysates from naïve cells. Image J was used for protein quantification. Western immunoblotting against histone 3 (H3) was also performed for normalization purposes. […] Exposure of the hCD8^+ T cells to 10 μM Compound (6) led to the depletion of trimethylated H3K4. H3K4me3 is commonly associated with activation of transcription."}, "[6]": {"system": "CT26 mouse colorectal tumors", "experiment": "Survival of CT26 tumor-bearing mice (in vivo anti-tumor effect)", "description": "In Vivo Anti-Tumor Effect. The anticancer properties of the therapeutic agent were evaluated in vivo by determining the ability of the agent to suppress tumor growth and/or increase survival of tumor-bearing animals. In a typical experiment, 0.1-1×10^6 tumor cells, suspended in PBS containing 20% Matrigel, were injected subcutaneously in the right flank of each mouse. When the tumors became palpable, the animals were randomized into different groups and treatment began. In vivo tests routinely included a vehicle control group and different doses and/or routes of administration of the therapeutic agent. Tumor growth was assessed using calipers and the following formula: Tumor Volume=length×width×width×½\nThe Kaplan-Meier analysis was used to estimate the survival probability of the tumor-bearing animals.\nC57BL/6 mice were injected subcutaneously in the right flank with 1×10^5 CT26 mouse colorectal tumor cells, suspended in PBS containing 20% Matrigel. The tumors were allowed to grow to ˜100 mm^3. The mice were randomized into two groups (n=6 animals/group): one group received vehicle control and the other group was treated with i.p. injections of 0.2 mg/kg Compound (6) twice a week (Tuesday-Thursday). The experiment continued for 27 days, at which point the mortality rate of control animals was 80%. […] The experiment was repeated (FIG. 6B). In FIG. 6B, treated animals received oral administrations of 3 mg/kg Compound (6) twice a day."}, "M-MDSCs in CT26 tumors": {"system": "M-MDSCs in CT26 tumors", "experiment": "Tumor immunophenotyping of CT26 tumors (MDSCs)", "assay_type": "in vivo, mouse", "conditions": "0.2 mg/kg ip, twice a day; tumors 250-1500 mm^3; FIG. 7", "description": "Tumor Immunophenotyping. To determine the effect of a therapeutic agent on a specific immune cell type in vivo, syngeneic tumor models were employed. In a typical experiment, tumors were allowed to grow to a certain size and were then treated for a specific number of days prior to termination. At the end of the experiment, animals were euthanized, tumors were excised and single cell suspensions were immediately obtained through dissociation of tumor tissues with collagenase. Tumor cell suspensions were then subject to FACS analysis in order to determine the presence of various biomarkers.\nTumor Immunophenotyping of CT26 Tumors. CT26-tumor bearing mice treated with either vehicle control or 0.2 mg/kg Compound (6) (ip, twice a day) were euthanized when the tumors had reached a size of 250-1500 mm^3. Tumors were excised and single cell suspensions were obtained using the tumor dissociation kit from Miltenyi Biotec per manufacturer's instructions. The suspensions were analyzed for the presence of MDSCs."}, "[7]": {"conditions": "3 mg/kg oral twice a day, end of experiment"}}, "note": "“Also recorded” adds a separate entry of the source."}
{"smiles": "C=CCC(C(=O)O)/C(=C/c1ccc(F)cc1)C(=O)O", "note": "(stereo not drawn) [(7), 2-[(4-flurophenyl)methylidene]-3-(prop-2-ene-1-yl)butanedioic acid]", "values": [{"measurement": "cell proliferation of C6-IRG1-9 cells", "setting": "[1]", "result": "inhibition of proliferation"}]}
{"smiles": "CC(C)=C(CC(=O)O)C(=O)O", "note": "[(3), 2-(propan-2-ylidene)butanedioic acid]", "values": [{"measurement": "cell proliferation of C6-IRG1-9 cells", "setting": "[1]", "result": "inhibition of proliferation"}]}
{"smiles": "O=C(O)CC(=Cc1ccc(F)cc1)C(=O)O", "note": "[Compound (5), 2-[(4-fluorophenyl)methylidene]butanedioic acid]", "values": [{"measurement": "cell proliferation of C6-IRG1-9 cells", "setting": "[1]", "result": "inhibition of proliferation"}]}
{"smiles": "O=C(O)/C(=C\\c1ccc(F)cc1)C(Cc1ccccc1)C(=O)O", "note": "(stereo not drawn) [Compound (6), 2-benzyl-3-[(4-flurophenyl)methylidene]butanedioic acid]", "values": [{"measurement": "extracellular levels of itaconic acid", "setting": "IRG1", "result": "suppressed"}, {"measurement": "intracellular levels of itaconic acid", "setting": "IRG1", "result": "suppressed"}, {"measurement": "secretion of TNFα", "setting": "[2]", "result": "inhibits in vitro inflammation; also recorded: reduced secretion"}, {"measurement": "cell proliferation of C6-IRG1-9 cells", "setting": "[1]", "result": "inhibition of proliferation"}, {"measurement": "proliferation of hCD8+ T cells", "setting": "[3]", "result": "increased proliferation"}, {"measurement": "IFNγ synthesis", "setting": "[4]; high (>100 μM) concentrations", "result": "decrease"}, {"measurement": "production of GZMB", "setting": "[4]; low concentrations", "result": "increase production"}, {"measurement": "synthesis of INFγ following TCR activation", "setting": "[4]; low concentrations, range of 0.1 nM to 100 µM", "result": "increased synthesis"}, {"measurement": "trimethylated H3K4 (H3K4me3/H3 ratio)", "setting": "[5]", "result": "depletion"}, {"measurement": "survival (Kaplan-Meier) of CT26 tumor-bearing mice", "setting": "[6]; 0.2 mg/kg i.p. twice a week, 27 days, versus vehicle control, FIG. 6A", "result": "survival advantage"}, {"measurement": "animals with complete tumor regression", "setting": "[6]; [7]", "result": "⅙"}, {"measurement": "mice exhibiting slower tumor growth", "setting": "[6]; [7]", "result": "⅚"}, {"measurement": "survival of CT26 tumor-bearing mice", "setting": "[6]; 3 mg/kg orally twice a day, FIG. 6B", "result": "increased survival"}, {"measurement": "intratumoral frequency of M-MDSCs", "setting": "M-MDSCs in CT26 tumors", "result": "significantly reduces"}]}
{"smiles": "O=C(O)CC(=Cc1ccccc1)C(=O)O", "note": "[(4), 2-(phenylmethylidene)butanedioic acid]", "values": [{"measurement": "cell proliferation of C6-IRG1-9 cells", "setting": "[1]", "result": "inhibition of proliferation"}]}
